From US20230172897A1, “METHODS OF TREATING BREAST CANCERS WITH SELECTIVE ANDROGEN RECEPTOR MODULATORS AND ADDITIONAL THERAPEUTIC AGENTS” (VERU, INC., priority 2021, published 2023)

Legend:
[1] = target: T1, PR (Rattus norvegicus, UniProt Q63449); experiment: Transcriptional activation (luciferase) in HEK-293 cells; assay type: cell-based
T1 construct: expressed in transfected cells
T1 sequence (Q63449 1-923): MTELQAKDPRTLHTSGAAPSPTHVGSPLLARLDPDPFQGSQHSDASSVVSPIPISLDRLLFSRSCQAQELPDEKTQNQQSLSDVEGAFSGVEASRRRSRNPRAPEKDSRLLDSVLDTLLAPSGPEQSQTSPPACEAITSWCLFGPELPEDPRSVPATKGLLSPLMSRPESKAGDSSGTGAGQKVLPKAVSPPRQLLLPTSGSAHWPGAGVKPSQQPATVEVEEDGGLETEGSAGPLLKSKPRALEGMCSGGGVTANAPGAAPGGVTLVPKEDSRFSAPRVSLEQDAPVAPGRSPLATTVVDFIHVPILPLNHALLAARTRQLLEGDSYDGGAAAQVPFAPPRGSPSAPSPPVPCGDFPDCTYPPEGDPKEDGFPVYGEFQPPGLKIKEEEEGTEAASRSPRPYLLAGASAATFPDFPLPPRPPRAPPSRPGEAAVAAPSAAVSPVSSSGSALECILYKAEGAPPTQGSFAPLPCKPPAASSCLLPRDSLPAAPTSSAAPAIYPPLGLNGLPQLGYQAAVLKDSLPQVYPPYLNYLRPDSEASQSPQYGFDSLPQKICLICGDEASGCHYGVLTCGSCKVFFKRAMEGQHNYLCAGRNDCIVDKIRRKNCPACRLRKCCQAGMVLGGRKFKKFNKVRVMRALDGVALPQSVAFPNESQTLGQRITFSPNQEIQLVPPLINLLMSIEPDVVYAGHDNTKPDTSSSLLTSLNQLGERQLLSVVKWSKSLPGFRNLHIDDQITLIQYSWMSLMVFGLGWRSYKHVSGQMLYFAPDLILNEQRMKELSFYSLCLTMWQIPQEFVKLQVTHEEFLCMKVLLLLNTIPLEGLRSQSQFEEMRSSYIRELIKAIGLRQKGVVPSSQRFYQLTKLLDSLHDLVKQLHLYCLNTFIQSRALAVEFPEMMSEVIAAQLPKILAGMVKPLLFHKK
Description: (§1) Rat GR, MR, PR, ER-α and ER-β were individually cloned into a pCR3.1 vector backbone. Sequencing was performed to verify the absence of any mutations. HEK-293 cells were plated at 90,000 cells per well of a 24 well plate in Dulbecco's Minimal Essential Media supplemented with 5% charcoal-stripped FBS. […] Luciferase assays were performed 48 h after transfection. Transcriptional activation values are represented as firefly luciferase normalized to renilla luciferase.

[2] = target: T2, ER-α (Rattus norvegicus, UniProt P06211); experiment: as above; assay type: cell-based
T2 construct: expressed in transfected cells
T2 sequence (P06211 whole entry): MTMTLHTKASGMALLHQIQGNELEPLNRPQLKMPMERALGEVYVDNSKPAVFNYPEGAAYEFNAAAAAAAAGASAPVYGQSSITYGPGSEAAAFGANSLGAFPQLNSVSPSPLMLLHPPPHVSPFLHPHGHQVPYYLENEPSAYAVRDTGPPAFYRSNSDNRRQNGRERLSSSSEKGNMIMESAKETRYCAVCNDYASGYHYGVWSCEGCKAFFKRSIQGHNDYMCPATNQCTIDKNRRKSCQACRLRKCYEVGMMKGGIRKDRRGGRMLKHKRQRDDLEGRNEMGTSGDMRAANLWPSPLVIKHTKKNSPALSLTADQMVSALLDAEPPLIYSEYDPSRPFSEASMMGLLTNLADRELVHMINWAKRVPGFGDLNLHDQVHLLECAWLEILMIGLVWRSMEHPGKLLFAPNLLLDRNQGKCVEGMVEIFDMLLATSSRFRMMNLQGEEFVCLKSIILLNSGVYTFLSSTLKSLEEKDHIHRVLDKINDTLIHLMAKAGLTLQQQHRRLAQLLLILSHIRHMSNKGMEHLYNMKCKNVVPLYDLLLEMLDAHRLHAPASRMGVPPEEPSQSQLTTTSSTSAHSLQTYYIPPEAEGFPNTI
Description: as §1

[3] = target: T3, MR (Rattus norvegicus, UniProt P22199); experiment: as above; assay type: cell-based
T3 construct: expressed in transfected cells
T3 sequence (P22199 1-981): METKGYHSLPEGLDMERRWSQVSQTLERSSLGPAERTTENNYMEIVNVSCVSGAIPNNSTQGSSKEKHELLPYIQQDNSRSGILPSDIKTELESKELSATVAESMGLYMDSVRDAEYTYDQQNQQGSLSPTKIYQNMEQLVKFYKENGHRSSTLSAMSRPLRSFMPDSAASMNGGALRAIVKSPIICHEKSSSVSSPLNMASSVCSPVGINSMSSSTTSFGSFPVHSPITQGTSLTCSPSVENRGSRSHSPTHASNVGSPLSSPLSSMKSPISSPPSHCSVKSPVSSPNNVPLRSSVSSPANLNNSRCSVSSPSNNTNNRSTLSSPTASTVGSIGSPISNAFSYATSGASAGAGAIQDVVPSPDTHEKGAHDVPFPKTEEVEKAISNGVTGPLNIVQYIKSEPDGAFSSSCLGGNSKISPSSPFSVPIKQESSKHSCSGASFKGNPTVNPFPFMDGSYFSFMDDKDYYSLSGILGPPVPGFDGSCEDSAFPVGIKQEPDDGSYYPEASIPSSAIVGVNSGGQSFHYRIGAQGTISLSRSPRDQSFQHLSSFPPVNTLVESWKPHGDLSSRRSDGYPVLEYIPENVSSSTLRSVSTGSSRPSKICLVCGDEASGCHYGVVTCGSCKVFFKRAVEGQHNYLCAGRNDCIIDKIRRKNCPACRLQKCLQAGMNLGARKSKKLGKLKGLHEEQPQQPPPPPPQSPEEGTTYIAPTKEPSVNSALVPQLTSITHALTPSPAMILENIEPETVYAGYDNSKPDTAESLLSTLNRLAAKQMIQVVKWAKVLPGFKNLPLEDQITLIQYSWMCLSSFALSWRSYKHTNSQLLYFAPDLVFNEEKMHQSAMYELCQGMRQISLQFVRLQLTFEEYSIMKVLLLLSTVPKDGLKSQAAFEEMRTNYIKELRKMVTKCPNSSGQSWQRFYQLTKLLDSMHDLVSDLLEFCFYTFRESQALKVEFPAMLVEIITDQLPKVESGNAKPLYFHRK
Description: as §1

[4] = target: T4, GR (Rattus norvegicus, UniProt P06536); experiment: as above; assay type: cell-based
T4 construct: expressed in transfected cells
T4 sequence (P06536 whole entry): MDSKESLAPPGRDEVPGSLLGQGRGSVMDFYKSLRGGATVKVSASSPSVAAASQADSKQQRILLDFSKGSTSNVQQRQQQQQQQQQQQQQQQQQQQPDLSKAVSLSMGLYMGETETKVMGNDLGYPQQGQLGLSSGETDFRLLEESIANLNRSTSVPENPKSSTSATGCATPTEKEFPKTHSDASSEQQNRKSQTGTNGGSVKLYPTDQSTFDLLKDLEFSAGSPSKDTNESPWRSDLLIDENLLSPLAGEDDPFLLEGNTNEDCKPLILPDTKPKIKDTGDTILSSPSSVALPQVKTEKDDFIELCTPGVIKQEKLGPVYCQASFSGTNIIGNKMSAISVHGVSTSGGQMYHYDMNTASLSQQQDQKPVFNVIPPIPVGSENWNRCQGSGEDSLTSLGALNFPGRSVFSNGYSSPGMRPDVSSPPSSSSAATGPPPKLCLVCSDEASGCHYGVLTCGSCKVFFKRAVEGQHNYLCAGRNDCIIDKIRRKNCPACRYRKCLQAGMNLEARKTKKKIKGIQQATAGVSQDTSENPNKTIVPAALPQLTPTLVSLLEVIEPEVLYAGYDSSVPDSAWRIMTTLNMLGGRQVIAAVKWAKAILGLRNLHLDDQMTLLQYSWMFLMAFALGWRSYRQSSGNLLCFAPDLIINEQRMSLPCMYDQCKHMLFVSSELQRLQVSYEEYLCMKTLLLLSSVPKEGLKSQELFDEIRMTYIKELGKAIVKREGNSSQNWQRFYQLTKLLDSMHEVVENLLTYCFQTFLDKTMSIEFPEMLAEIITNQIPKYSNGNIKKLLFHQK
Description: as §1

[5] = system: MCF-7-GFP cells; assay type: cell-based; settings: 10 days
Description: After 6 days of treatment, cells were harvested, and the number of cells was counted. […] Medium was changed after 3 days and re-treated. Cells were fixed after 6 days of treatment and the cell viability was measured by SRB assay. […] Medium was changed, and the cells were re-treated on days 4 and 7. Medium was collected, pooled from triplicates, and stored in −80° C. After 10 days of treatment, cells were fixed, and cell viability was measured using SRB. MCF-7 cells stably transfected with GFP (MCF-7-GFP) were plated in growth medium. Twenty-four hours after plating, cells were fed with the conditioned medium obtained from patient-derived fibroblasts as indicated above. Cells were fed for 10 days with conditioned medium, with medium changed on days 4 and 7. After 10 days of treatment, cells were fixed, and the viability was measured by SRB assay. […] AR-positive, but ER-negative HCI-9 PDX was surgically implanted as 1 mm^3 fragments under the mammary fat pad in NSG mice (n=8-10/group). […] Tumor volume was measured thrice weekly. […] ER-α from HCI-13 was cloned into pCR3.1 vector. […] Twenty four hours after treatment cells were harvested and luciferase assay was performed. […] Values are expressed as average ±S.E. from n=3-4/data point.
Conditioned medium was replaced on days 4 and 7 and the cells were stained with SRB to measure viability.

[6] = system: breast cancer specimens obtained from patients; experiment: Ex vivo sponge culture of breast cancer patient specimens, real time PCR; settings: 3 days
[7] = agonist mode, all tested concentrations

Compound	fold weaker than the endogenous agonist for PR ([1]; agonist mode)	increase of PR transactivation ([1]; agonist mode, 1 μM)	increase of PR transactivation ([1]; agonist mode, 10 μM)	PR antagonist potency in comparison to Formula IX (times more potent) ([1]; antagonist mode)	PR antagonist potency in comparison to R-enantiomer of Formula IX (times more potent) ([1]; antagonist mode)	PR antagonist potency in comparison to RU486 (fold weaker) ([1]; antagonist mode)	inhibition of PR activity, dose response ([1]; antagonist mode)	ER-α-mediated transactivation ([2]; agonist mode, highest tested concentration 1 μM)	17β-estradiol-induced ER-α activity ([2]; antagonist mode)	MR-mediated transactivation [3, 7]	aldosterone-induced MR-mediated transactivation ([3]; antagonist mode)	GR-mediated transactivation [4, 7]	dexamethasone-induced GR-mediated transactivation ([4]; antagonist mode)	proliferation of MCF-7-GFP cells fed with conditioned medium of treated CAFs [5]	specimens in which ER function was inhibited ([6]; 1 μM Formula IX or 100 nM fulvestrant)	specimens in which AR agonist activity was observed ([6]; 1 μM)	ER function in specimen 1005 [6]
C[C@](O)(COc1ccc(C#N)cc1)C(=O)Nc1ccc(C#N)c(Cl)c1 [Formula VIII, (S)—N-(3-chloro-4-cyanophenyl)-3-(4-cyanophenoxy)-2-hydroxy-2-methylpropanamide]	greater than 10,000 fold	3 fold	8 fold	10 times	100 times	about 1,000 fold	potent partial inhibition	failed to activate	failed to alter	did not induce	failed to alter	did not induce	failed to alter				
C[C@](O)(COc1ccc(C#N)cc1)C(=O)Nc1ccc(C#N)c(C(F)(F)F)c1 [Formula IX, (S)—N-(4-Cyano-3-(trifluoromethyl)phenyl)-3-(4-cyanophenoxy)-2-hydroxy-2-methylpropanamide]														inhibited the proliferation	3 of 8	4 of 8	inhibited the ER function
